Measurements as given in patent US6355799B1, “Substituted benzene compounds, process for their preparation, and herbicidal and defoliant compositions containing them” (ISK Americas Incorporated, priority 1997, dated 2002).

Experiments:
Type in all cases: in vivo
[1] = system: common ragweed (Ambrosia artemisizfolia L., AMBEL); assay: Pre-emerge test, greenhouse herbicide activity screening; conditions: pre-emerge, rated 14 days after application, 0 = no damage, 100 = complete death
How it was run: (§1)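 Sandy loam pots; pre-emerge: sown 1 d pre-spray, surface-watered after, then bottom-watered. Post-emerge: sown 8–21 d before, 2–3 leaf stage, + 0.25% v/v NIS, bottom-watered. Acetone, 187 l/ha track spray, 15–1000 g ai/ha. 0–100 injury score, day 14.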

[2] = system: ivyleaf morningglory (Ipomoea hederacea, IPOHE); assay: as above; conditions: pre-emerge; for Pre-emerge Herbicidal Activity IPOHE (phytotoxicity rating, scale 0-100): rated 14 days after application, 0 = no damage, 100 = complete death; for phytotoxicity rating IPOHE: 14 days after application, rating scale 0-100
How it was run: as §1

[3] = system: cocklebur (Xanthium strumarium, XANST); assay: as above; conditions: 14 days after application, rating scale 0-100
[4] = system: velvetleaf (Abutilon theophrasti, ABUTH); assay: as above; conditions: pre-emerge; for Pre-emerge Herbicidal Activity ABUTH (phytotoxicity rating, scale 0-100): rated 14 days after application, 0 = no damage, 100 = complete death; for phytotoxicity rating ABUTH: 14 days after application, rating scale 0-100
How it was run: as §1

[5] = system: green foxtail (Setaria viridis, SETVI); assay: as above; conditions: pre-emerge; for Pre-emerge Herbicidal Activity SETVI (phytotoxicity rating, scale 0-100): rated 14 days after application, 0 = no damage, 100 = complete death; for phytotoxicity rating SETVI: 14 days after application, rating scale 0-100
How it was run: as §1

[6] = system: large crabgrass (Digitaria sanguinalis, DIGSA); assay: as above; conditions: pre-emerge; for Pre-emerge Herbicidal Activity DIGSA (phytotoxicity rating, scale 0-100): rated 14 days after application, 0 = no damage, 100 = complete death; for phytotoxicity rating DIGSA: 14 days after application, rating scale 0-100
How it was run: as §1

[7] = system: barnyardgrass (Echinochloa crus-galli, ECHCG); assay: as above; conditions: pre-emerge; for Pre-emerge Herbicidal Activity ECHCG (phytotoxicity rating, scale 0-100): rated 14 days after application, 0 = no damage, 100 = complete death; for phytotoxicity rating ECHCG: 14 days after application, rating scale 0-100
How it was run: as §1

[8] = system: lambsquarters (Chenopodium album, CHEAL); assay: as above; conditions: pre-emerge; for Pre-emerge Herbicidal Activity CHEAL (phytotoxicity rating, scale 0-100): rated 14 days after application, 0 = no damage, 100 = complete death; for phytotoxicity rating CHEAL: 14 days after application, rating scale 0-100
How it was run: as §1

[9] = system: johnsongrass (Sorghum halepense, SORHA); assay: as above; conditions: pre-emerge; for Pre-emerge Herbicidal Activity SORHA (phytotoxicity rating, scale 0-100): rated 14 days after application, 0 = no damage, 100 = complete death; for phytotoxicity rating SORHA: 14 days after application, rating scale 0-100
How it was run: as §1

[10] = system: common ragweed (Ambrosia artemisizfolia L., AMBEL); assay: Post-emerge test, greenhouse herbicide activity screening; conditions: phytotoxicity rating 0-100 (0 no damage, 100 complete death), 14 days after application
How it was run: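 Compounds in acetone were track-sprayed at 15-1000 g ai/ha (187 l/ha) on sandy loam pots: pre-emerge one day after seeding, post-emerge at 2-3 leaf stage with 0.25% v/v non-ionic surfactant. Phytotoxicity was rated 14 days later on a 0 (no damage) to 100 (complete death) scale.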

weed species = assay: Standard greenhouse herbicide activity screening, overall statements on weeds; conditions: comparison with compound 2 of Japanese Pat. No. Toku Kai Hei 5-25144 (Table XIX)
Text: A standard greenhouse herbicide activity screening system was used to evaluate the herbicidal efficacy and crop safety of these test compounds. Seven broadleaf weed species including redroot pigweed (Amaranthus retroflexus, AMARE, velvetleaf (Abutilon theophrasti, ABUTH), sicklepod (Cassia obtusifolia, CASOB), ivyleaf morningglory (Ipomoea hederacea, IPOHE), lambsquarters (Chenopodium album, CHEAL), common ragweed (Ambrosia artemisizfolia L., AMBEL), and cocklebur (Xanthium strumarium, XANST) were used as test species. Four grass weed species including green foxtail (Setaria viridis, SETVI), barnyardgrass (Echinochloa crus-galli, ECHCG), johnsongrass (Sorghum halepense, SORHA), and large crabgrass (Digitaria sanguinalis, DIGSA) were also used. In addition, three crop species, field corn (Zea mays L., var. Dekalb 535, CORN), soybean (Glycine max L., var. Pella 86, SOY), and is upland rice (Oryza sp., var. Tebonnet, RICE) were included.
All plants were grown in 10 cm square plastic pots which were filled with a sandy loam soil mix. For pre-emerge tests, seeds were planted one day prior to application of the test compounds. For post-emerge tests, seeds were planted 8-21 days prior to the test to allow emergence and good foliage development prior to application of the test substances. […]
At 14 days after application of the test materials, phytotoxicity ratings were recorded. […]

COc1c(Cl)cc(F)c(-n2c(=O)cc(C(F)(F)F)n(C)c2=O)c1N [Compound 1-4, 3-(2-amino-4-chloro-6-fluoro-3-methoxyphenyl)-1-methyl-6-trifluoromethyl-2,4(1H, 3H)-pyrimidinedione]
Pre-emerge Herbicidal Activity AMBEL (phytotoxicity rating, scale 0-100) ([1]; 63 g ai/ha): 100
Pre-emerge Herbicidal Activity AMBEL (phytotoxicity rating, scale 0-100) ([1]; 250 g ai/ha): 100
Pre-emerge Herbicidal Activity IPOHE (phytotoxicity rating, scale 0-100) ([2]; 63 g ai/ha): 100
Pre-emerge Herbicidal Activity IPOHE (phytotoxicity rating, scale 0-100) ([2]; 250 g ai/ha): 100
phytotoxicity rating IPOHE ([2]; 3.9 g ai/ha): 0
phytotoxicity rating IPOHE ([2]; 7.8 g ai/ha): 0
phytotoxicity rating IPOHE ([2]; 15.6 g ai/ha): 0
phytotoxicity rating IPOHE ([2]; 31.3 g ai/ha): 50
phytotoxicity rating IPOHE ([2]; 62.5 g ai/ha): 90
phytotoxicity rating IPOHE ([2]; 125 g ai/ha): 100
phytotoxicity rating IPOHE ([2]; 250 g ai/ha): 100
phytotoxicity rating XANST ([3]; 3.9 g ai/ha): 0
phytotoxicity rating XANST ([3]; 7.8 g ai/ha): 0
phytotoxicity rating XANST ([3]; 15.6 g ai/ha): 20
phytotoxicity rating XANST ([3]; 31.3 g ai/ha): 10
phytotoxicity rating XANST ([3]; 62.5 g ai/ha): 50
phytotoxicity rating XANST ([3]; 125 g ai/ha): 50
phytotoxicity rating XANST ([3]; 250 g ai/ha): 90
Pre-emerge Herbicidal Activity ABUTH (phytotoxicity rating, scale 0-100) ([4]; 63 g ai/ha): 100
Pre-emerge Herbicidal Activity ABUTH (phytotoxicity rating, scale 0-100) ([4]; 250 g ai/ha): 100
phytotoxicity rating ABUTH ([4]; 3.9 g ai/ha): 95
phytotoxicity rating ABUTH ([4]; 7.8 g ai/ha): 100
phytotoxicity rating ABUTH ([4]; 15.6 g ai/ha): 100
phytotoxicity rating ABUTH ([4]; 31.3 g ai/ha): 100
phytotoxicity rating ABUTH ([4]; 62.5 g ai/ha): 100
phytotoxicity rating ABUTH ([4]; 125 g ai/ha): 100
phytotoxicity rating ABUTH ([4]; 250 g ai/ha): 100
Pre-emerge Herbicidal Activity SETVI (phytotoxicity rating, scale 0-100) ([5]; 63 g ai/ha): 100
Pre-emerge Herbicidal Activity SETVI (phytotoxicity rating, scale 0-100) ([5]; 250 g ai/ha): 100
phytotoxicity rating SETVI ([5]; 3.9 g ai/ha): 0
phytotoxicity rating SETVI ([5]; 7.8 g ai/ha): 60
phytotoxicity rating SETVI ([5]; 15.6 g ai/ha): 80
phytotoxicity rating SETVI ([5]; 31.3 g ai/ha): 80
phytotoxicity rating SETVI ([5]; 62.5 g ai/ha): 100
phytotoxicity rating SETVI ([5]; 125 g ai/ha): 100
phytotoxicity rating SETVI ([5]; 250 g ai/ha): 100
Pre-emerge Herbicidal Activity DIGSA (phytotoxicity rating, scale 0-100) ([6]; 63 g ai/ha): 100
Pre-emerge Herbicidal Activity DIGSA (phytotoxicity rating, scale 0-100) ([6]; 250 g ai/ha): 100
phytotoxicity rating DIGSA ([6]; 3.9 g ai/ha): 0
phytotoxicity rating DIGSA ([6]; 7.8 g ai/ha): 30
phytotoxicity rating DIGSA ([6]; 15.6 g ai/ha): 30
phytotoxicity rating DIGSA ([6]; 31.3 g ai/ha): 30
phytotoxicity rating DIGSA ([6]; 62.5 g ai/ha): 95
phytotoxicity rating DIGSA ([6]; 125 g ai/ha): 100
phytotoxicity rating DIGSA ([6]; 250 g ai/ha): 100
Pre-emerge Herbicidal Activity ECHCG (phytotoxicity rating, scale 0-100) ([7]; 63 g ai/ha): 100
Pre-emerge Herbicidal Activity ECHCG (phytotoxicity rating, scale 0-100) ([7]; 250 g ai/ha): 100
phytotoxicity rating ECHCG ([7]; 3.9 g ai/ha): 0
phytotoxicity rating ECHCG ([7]; 7.8 g ai/ha): 0
phytotoxicity rating ECHCG ([7]; 15.6 g ai/ha): 0
phytotoxicity rating ECHCG ([7]; 31.3 g ai/ha): 10
phytotoxicity rating ECHCG ([7]; 62.5 g ai/ha): 30
phytotoxicity rating ECHCG ([7]; 125 g ai/ha): 95
phytotoxicity rating ECHCG ([7]; 250 g ai/ha): 100
Pre-emerge Herbicidal Activity CHEAL (phytotoxicity rating, scale 0-100) ([8]; 63 g ai/ha): 100
Pre-emerge Herbicidal Activity CHEAL (phytotoxicity rating, scale 0-100) ([8]; 250 g ai/ha): 100
phytotoxicity rating CHEAL ([8]; 3.9 g ai/ha): 30
phytotoxicity rating CHEAL ([8]; 7.8 g ai/ha): 60
phytotoxicity rating CHEAL ([8]; 15.6 g ai/ha): 100
phytotoxicity rating CHEAL ([8]; 31.3 g ai/ha): 100
phytotoxicity rating CHEAL ([8]; 62.5 g ai/ha): 100
phytotoxicity rating CHEAL ([8]; 125 g ai/ha): 100
phytotoxicity rating CHEAL ([8]; 250 g ai/ha): 100
Pre-emerge Herbicidal Activity SORHA (phytotoxicity rating, scale 0-100) ([9]; 63 g ai/ha): 85
Pre-emerge Herbicidal Activity SORHA (phytotoxicity rating, scale 0-100) ([9]; 250 g ai/ha): 100
phytotoxicity rating SORHA ([9]; 3.9 g ai/ha): 0
phytotoxicity rating SORHA ([9]; 7.8 g ai/ha): 0
phytotoxicity rating SORHA ([9]; 15.6 g ai/ha): 0
phytotoxicity rating SORHA ([9]; 31.3 g ai/ha): 30
phytotoxicity rating SORHA ([9]; 62.5 g ai/ha): 40
phytotoxicity rating SORHA ([9]; 125 g ai/ha): 95
phytotoxicity rating SORHA ([9]; 250 g ai/ha): 100
Post-emerge Herbicidal Activity AMBEL ([10]; 63 g ai/ha): 50
Post-emerge Herbicidal Activity AMBEL ([10]; 250 g ai/ha): 90
pre-emerge herbicidal activity (weed species): high level of activity
